Test system: weeds
Experiment: Weed control by mulch, dithiopyr and mulch/dithiopyr compositions applied to the ground
Format: in vivo
Conditions: dithiopyr alone, no mulch, application rate 560 grams per hectare
Description: In the following examples, dithiopyr is first dissolved in a warm solvent such as dipropylene glycol at 12-18 percent, by weight. This solution was then sprayed onto a clay carrier.
The results provided by the composition of this invention were compared with the results obtained using the herbicide and the mulch individually.

## CSC(=O)c1c(C(F)F)nc(C(F)(F)F)c(C(=O)SC)c1CC(C)C [Dithiopyr, 2-difluoromethyl-4-(2-methylpropyl)-6-trifluoromethyl-3,5-pyridinedicarbothioic acid, S,S-dimethyl ester]
  % Weed Control: 30%
